Assays:
[1] = system: Puccinia recondita f. sp. Tritici; test: Puccinia recondita f. sp. tritici / wheat / leaf disc preventative (brown rust); type: in vivo; conditions: foliar, wheat leaf segments cv Kanzler, inoculated 1 day after application, assessed 7-9 days after application, read-out: control of Puccinia recondita f. sp. Tritici (percent disease control compared to untreated)
Method in brief: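 Leaf segments of wheat cv Kanzler on agar were sprayed with formulated compound at 200 ppm and inoculated with spores 1 day later. Incubation was at 19° C, 75% relative humidity and 12/12 h light/dark. Activity was scored 7-9 days after application as percent disease control versus untreated.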

[2] = system: Gaeumannomyces graminis; test: Gaeumannomyces graminis / liquid culture (take-all of cereals); type: cell-based; conditions: PDB, 24° C., 4-5 days after application, read-out: control of Gaeumannomyces graminis (inhibition of growth, photometric)
Method in brief: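 Mycelial fragments in potato dextrose broth were exposed to compound from DMSO at 200 ppm in microtiter plates. Incubation at 24 °C; growth inhibition read photometrically 4-5 days after application.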

[3] = system: Pyrenophora teres; test: Pyrenophora teres / barley / leaf disc preventative (net blotch); type: in vivo; conditions: foliar, barley leaf segments cv Hasso, inoculated two days after application, assessed 5-7 days after application, read-out: control of Pyrenophora teres (disease control compared to untreated)
Method in brief: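 Barley cv Hasso leaf segments on agar sprayed with compound at 200 ppm, inoculated with spores two days later. Kept at 20 °C, 65% RH, 12/12 h light; disease control versus untreated scored 5-7 days after application.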

[4] = system: Thanatephorus cucumeris (Rhizoctonia solani); test: Thanatephorus cucumeris (Rhizoctonia solani) / liquid culture (foot rot, damping-off); type: cell-based; conditions: PDB, 24° C., 3-4 days after application, read-out: control of Thanatephorus cucumeris (inhibition of growth, photometric)
Method in brief: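 Mycelial fragments in potato dextrose broth exposed to test compounds at 200 ppm (from DMSO solution), incubated at 24° C. Growth inhibition read photometrically 3-4 days after application.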

[5] = system: Glomerella lagenarium (Colletotrichum lagenarium); test: Glomerella lagenarium (Colletotrichum lagenarium) / liquid culture (anthracnose); type: cell-based; conditions: Colletotrichum orbiculare, PDB, 24° C., 3-4 days after application, read-out: control of Glomerella lagenarium (inhibition of growth, photometric)
Method in brief: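 Cryopreserved conidia suspended in potato dextrose broth were added to compound in DMSO applied at 200 ppm. Plates incubated at 24° C; growth inhibition read photometrically 3-4 days after application.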

[6] = system: Botryotinia fuckeliana (Botrytis cinerea); test: Botryotinia fuckeliana (Botrytis cinerea) / liquid culture (gray mould); type: cell-based; conditions: Vogels broth, 24° C., 3-4 days after application, read-out: control of Botryotinia fuckeliana (inhibition of growth, photometric)
Method in brief: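 Botrytis cinerea conidia in Vogels broth were added to test compound applied from DMSO at 200 ppm. Incubation at 24 °C; growth inhibition read photometrically 3-4 days after application.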

[7] = system: Mycosphaerella graminicola (Septoria tritici); test: Mycosphaerella graminicola (Septoria tritici) / liquid culture (Septoria blotch); type: cell-based; conditions: Zymoseptoria tritici, PDB, 24° C., 4-5 days after application, read-out: control of Mycosphaerella graminicola (inhibition of growth, photometric)
Method in brief: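 Cryo-stored conidia in potato dextrose broth were added to compound in DMSO at 200 ppm in microtiter plates. Plates were incubated at 24 °C and growth inhibition was measured photometrically 4–5 days after application.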

[8] = system: Pythium ultimum; test: Pythium ultimum / liquid culture (seedling damping off); type: cell-based; conditions: Globisporangium ultimum, potato dextrose broth, 24° C., 2-3 days after application, read-out: control of Pythium ultimum (inhibition of growth, photometric)
Protocol: Pythium ultimum/Liquid Culture (Seedling Damping Off) Mycelia fragments and oospores of a newly grown liquid culture of the fungus were directly mixed into nutrient broth (potato dextrose broth). After placing a DMSO solution of test compound into a 96-well format microtiter plate at an application rate of 200 ppm, the nutrient broth containing the fungal mycelia/spore mixture was added. The test plates were incubated at 24° C. and the inhibition of growth was determined photometrically 2-3 days after application.

[9] = system: Blumeria graminis f. Sp. Tritici (Erysiphe graminis f. Sp. Tritici); test: Blumeria graminis f. sp. tritici / wheat / leaf disc preventative (powdery mildew on wheat); type: in vivo; conditions: foliar, wheat leaf segments cv. Kanzler, inoculated 1 day after application, assessed 6-8 days after application, read-out: control of Blumeria graminis (percent disease control compared to untreated)
Protocol: Blumeria graminis f. Sp. Tritici (Erysiphe graminis f. Sp. Tritici)/Wheat/Leaf Disc Preventative (Powdery Mildew on Wheat):
Wheat leaf segments cv. Kanzler were placed on agar in a 24-well plate and sprayed with the formulated test compound diluted in water at an application rate of 200 ppm. The leaf disks were inoculated by shaking powdery mildew infected plants above the test plates 1 day after application. The inoculated leaf disks were incubated at 20° C. and 60% relative humidity under a light regime of 24 h darkness followed by 12 h/12 h (dark/light) in a climate chamber and the activity of a compound was assessed as percent disease control compared to untreated when an appropriate level of disease damage appears on untreated check leaf segments (6-8 days after application). The following compounds gave at least 80% control of Blumeria graminis at 200 ppm when compared to untreated control leaf disks under the same conditions, which show extensive disease development: 2, 13, 23, 50, 59, 61, 67, 75, 85, 86, 89, 90, 93, 102, 103, 107, 134, 136, 137, 138, 139, 141, 145, 151, 153, 154, 163, 173, 174

[10] = system: Phaeosphaeria nodorum (Septoria nodorum); test: Phaeosphaeria nodorum (Septoria nodorum) / wheat / leaf disc preventative (glume blotch); type: in vivo; conditions: Parastagonospora nodorum, foliar, wheat leaf segments cv Kanzler, inoculated 2 days after application, assessed 5-7 days after application, read-out: control of Phaeosphaeria nodorum (percent disease control compared to untreated)
Method in brief: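 Wheat leaf segments (cv Kanzler) on agar sprayed with compound at 200 ppm, inoculated with spores 2 days later. Incubated at 20° C., 75% relative humidity, 12/12 h light/dark; percent disease control versus untreated scored 5-7 days after application.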

[11] = system: Sclerotinia sclerotiorum; test: Sclerotinia sclerotiorum liquid culture (cottony rot / white mold); type: cell-based; conditions: PDB, 24° C., 3-4 days after application, read-out: control of Sclerotinia sclerotiorum (inhibition of growth, photometric)
Method in brief: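 Mycelia fragments of Sclerotinia sclerotiorum in potato dextrose broth were added to compound in DMSO. Cultures incubated at 24° C; growth inhibition determined photometrically 3-4 days after application.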

[12] = system: Monographella nivalis (Microdochium nivale); test: Monographella nivalis (Microdochium nivale) / liquid culture (foot rot cereals); type: cell-based; conditions: PDB, 24° C., 4-5 days after application, read-out: control of Monographella nivalis (inhibition of growth, photometric)
Method in brief: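 Cryostored conidia in potato dextrose broth were added to test compound dispensed from DMSO at 200 ppm. Plates were kept at 24° C, and growth inhibition was read photometrically 4-5 days after application.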

[13] = system: Fusarium culmorum; test: microbe, parasite or virus in culture; type: cell-based; conditions: read-out: control of Fusarium culmorum (inhibition of growth, photometric)
[14] = system: Plasmopara viticola; test: Plasmopara viticola / grape / leaf disc preventative; type: in vivo; conditions: foliar, grape vine leaf disks, inoculated 1 day after application, assessed 6-8 days after application, read-out: control of Plasmopara viticola (percent disease control compared to untreated)
[15] = system: Mycosphaerella arachidis (Cercospora arachidicola); test: Mycosphaerella arachidis (Cercospora arachidicola) / liquid culture (early leaf spot); type: cell-based; conditions: PDB, 24° C., 4-5 days after application, read-out: control of Mycosphaerella arachidis (inhibition of growth, photometric)
Method in brief: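 Conidia suspended in potato dextrose broth and added to test compound from DMSO solution at 200 ppm. Incubated at 24 °C; growth inhibition read photometrically 4-5 days after application.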

CCn1c(-n2ncnc2N)nc2cncc(-c3ccccc3C#N)c21 [Compound 85, 2-[2-(5-amino-1,2,4-triazol-1-yl)-1-ethylimidazo[4,5-c]pyridin-7-yl]benzonitrile]
pest or weed control at 200 ppm [1]: ≥ 80%
inhibition at 20 ppm [2]: ≥ 80%
pest or weed control at 200 ppm [3]: ≥ 80%
inhibition at 20 ppm [4]: ≥ 80%
inhibition at 20 ppm [5]: ≥ 80%
inhibition at 20 ppm [6]: ≥ 80%
inhibition at 20 ppm [7]: ≥ 80%
inhibition at 20 ppm [8]: ≥ 80%
pest or weed control at 200 ppm [9]: ≥ 80%

CCCCc1nc(N)n(-c2nc3cnccc3n2C2CCCCC2)n1 [Compound 6, 5-butyl-2-(1-cyclohexylimidazo[4,5-c]pyridin-2-yl)-1,2,4-triazol-3-amine]
melting point: 163 to 165 °C
inhibition at 20 ppm [5]: ≥ 80%
inhibition at 20 ppm [8]: ≥ 80%

CCn1c(-n2ncnc2N)nc2cncc(-c3ccc(Cl)c(Cl)c3F)c21 [Compound 100, 2-[7-(3,4-dichloro-2-fluorophenyl)-1-ethylimidazo[4,5-c]pyridin-2-yl]-1,2,4-triazol-3-amine]
pest or weed control at 200 ppm [1]: ≥ 80%
inhibition at 20 ppm [2]: ≥ 80%
pest or weed control at 200 ppm [10]: ≥ 80%
pest or weed control at 200 ppm [3]: ≥ 80%
inhibition at 20 ppm [11]: ≥ 80%
inhibition at 20 ppm [4]: ≥ 80%
inhibition at 20 ppm [12]: ≥ 80%
inhibition at 20 ppm [5]: ≥ 80%
inhibition at 20 ppm [6]: ≥ 80%
inhibition at 20 ppm [7]: ≥ 80%
inhibition at 20 ppm [13]: ≥ 80%

CCn1c(-n2ncnc2N)nc2cncc(-c3cc(Cl)ccc3Cl)c21 [Compound 88, 2-[7-(2,5-dichlorophenyl)-1-ethylimidazo[4,5-c]pyridin-2-yl]-1,2,4-triazol-3-amine]
pest or weed control at 200 ppm [1]: ≥ 80%
inhibition at 20 ppm [2]: ≥ 80%
pest or weed control at 200 ppm [10]: ≥ 80%
pest or weed control at 200 ppm [3]: ≥ 80%
inhibition at 20 ppm [11]: ≥ 80%
inhibition at 20 ppm [4]: ≥ 80%
inhibition at 20 ppm [12]: ≥ 80%
inhibition at 20 ppm [5]: ≥ 80%
inhibition at 20 ppm [6]: ≥ 80%
inhibition at 20 ppm [7]: ≥ 80%
inhibition at 20 ppm [13]: ≥ 80%

CCCn1c(-n2ncnc2N)nc2cncc(-c3ccccc3Cl)c21 [Compound 172, 2-[7-(2-chlorophenyl)-1-propyl-imidazo[4,5-c]pyridin-2-yl]-1,2,4-triazol-3-amine]
pest or weed control at 200 ppm [1]: ≥ 80%
inhibition at 20 ppm [2]: ≥ 80%
pest or weed control at 200 ppm [10]: ≥ 80%
pest or weed control at 200 ppm [3]: ≥ 80%
inhibition at 20 ppm [11]: ≥ 80%
inhibition at 20 ppm [4]: ≥ 80%
inhibition at 20 ppm [12]: ≥ 80%
inhibition at 20 ppm [5]: ≥ 80%
pest or weed control at 200 ppm [14]: ≥ 80%
inhibition at 20 ppm [6]: ≥ 80%
inhibition at 20 ppm [7]: ≥ 80%
inhibition at 20 ppm [8]: ≥ 80%

CCn1c(-n2ncnc2N)nc2cncc(-c3ccc(F)cc3F)c21 [Compound 80, 2-[7-(2,4-difluorophenyl)-1-ethylimidazo[4,5-c]pyridin-2-yl]-1,2,4-triazol-3-amine]
pest or weed control at 200 ppm [1]: ≥ 80%
inhibition at 20 ppm [2]: ≥ 80%
pest or weed control at 200 ppm [10]: ≥ 80%
pest or weed control at 200 ppm [3]: ≥ 80%
inhibition at 20 ppm [15]: ≥ 80%
inhibition at 20 ppm [11]: ≥ 80%
inhibition at 20 ppm [4]: ≥ 80%
inhibition at 20 ppm [12]: ≥ 80%
inhibition at 20 ppm [5]: ≥ 80%
inhibition at 20 ppm [6]: ≥ 80%
inhibition at 20 ppm [7]: ≥ 80%
inhibition at 20 ppm [8]: ≥ 80%

CCn1c(-n2ncnc2N)nc2cncc(C)c21 [Compound 22, 2-(1-ethyl-7-methylimidazo[4,5-c]pyridin-2-yl)-1,2,4-triazol-3-amine]
pest or weed control at 200 ppm [1]: ≥ 80%
inhibition at 20 ppm [2]: ≥ 80%
melting point: 194 to 198 °C
pest or weed control at 200 ppm [10]: ≥ 80%
pest or weed control at 200 ppm [3]: ≥ 80%
inhibition at 20 ppm [15]: ≥ 80%
inhibition at 20 ppm [11]: ≥ 80%
inhibition at 20 ppm [4]: ≥ 80%
inhibition at 20 ppm [12]: ≥ 80%
inhibition at 20 ppm [5]: ≥ 80%
inhibition at 20 ppm [6]: ≥ 80%
inhibition at 20 ppm [7]: ≥ 80%
inhibition at 20 ppm [8]: ≥ 80%

CCn1c(-n2ncnc2N)nc2cncc(-c3ccc(OC)nc3)c21 [Compound 59, 2-[1-ethyl-7-(6-methoxypyridin-3-yl)imidazo[4,5-c]pyridin-2-yl]-1,2,4-triazol-3-amine]
pest or weed control at 200 ppm [1]: ≥ 80%
inhibition at 20 ppm [2]: ≥ 80%
pest or weed control at 200 ppm [10]: ≥ 80%
pest or weed control at 200 ppm [3]: ≥ 80%
inhibition at 20 ppm [4]: ≥ 80%
inhibition at 20 ppm [5]: ≥ 80%
inhibition at 20 ppm [6]: ≥ 80%
inhibition at 20 ppm [7]: ≥ 80%
inhibition at 20 ppm [8]: ≥ 80%
pest or weed control at 200 ppm [9]: ≥ 80%

CCn1c(-n2ncnc2N)nc2cncc(-c3ccccc3)c21 [Compound 19, 2-(1-ethyl-7-phenylimidazo[4,5-c]pyridin-2-yl)-1,2,4-triazol-3-amine]
pest or weed control at 200 ppm [1]: ≥ 80%
inhibition at 20 ppm [2]: ≥ 80%
melting point: 247 to 251 °C
pest or weed control at 200 ppm [10]: ≥ 80%
pest or weed control at 200 ppm [3]: ≥ 80%
inhibition at 20 ppm [4]: ≥ 80%
inhibition at 20 ppm [12]: ≥ 80%
inhibition at 20 ppm [5]: ≥ 80%
pest or weed control at 200 ppm [14]: ≥ 80%
inhibition at 20 ppm [6]: ≥ 80%
inhibition at 20 ppm [7]: ≥ 80%
inhibition at 20 ppm [8]: ≥ 80%

CCn1c(-n2ncnc2N)nc2cncc(-c3ccc(Cl)cc3Cl)c21 [Compound 38, 2-[7-(2,4-dichlorophenyl)-1-ethylimidazo[4,5-c]pyridin-2-yl]-1,2,4-triazol-3-amine]
pest or weed control at 200 ppm [1]: ≥ 80%
inhibition at 20 ppm [2]: ≥ 80%
pest or weed control at 200 ppm [10]: ≥ 80%
pest or weed control at 200 ppm [3]: ≥ 80%
inhibition at 20 ppm [15]: ≥ 80%
inhibition at 20 ppm [11]: ≥ 80%
inhibition at 20 ppm [4]: ≥ 80%
inhibition at 20 ppm [12]: ≥ 80%
inhibition at 20 ppm [5]: ≥ 80%
inhibition at 20 ppm [6]: ≥ 80%
inhibition at 20 ppm [7]: ≥ 80%
inhibition at 20 ppm [8]: ≥ 80%
